Assays:
Type in all cases: functional
[1] = test system: NCI-H226; assay: Growth inhibition of human NCI-H226 cells assessed as cell growth at 0.1 uM incubated for 48 hrs by sulforhodamine B assay relative to control; conditions: read-out: Activity
[2] = test system: HOP-62; assay: Growth inhibition of human HOP-62 cells assessed as cell growth at 1 uM incubated for 48 hrs by sulforhodamine B assay relative to control; conditions: read-out: Activity
[3] = test system: MDA-MB-468; assay: Growth inhibition of human MDA-MB-468 cells assessed as cell growth at 0.1 uM incubated for 48 hrs by sulforhodamine B assay relative to control; conditions: read-out: Activity
[4] = test system: A549; assay: Growth inhibition of human A549/ATCC cells assessed as cell growth at 0.1 uM incubated for 48 hrs by sulforhodamine B assay relative to control; conditions: read-out: Activity
[5] = test system: BT-549; assay: Growth inhibition of human BT-549 cells incubated for 48 hrs by sulforhodamine B assay
[6] = test system: KM12; assay: Growth inhibition of human KM12 cells assessed as cell growth at 0.01 uM incubated for 48 hrs by sulforhodamine B assay relative to control; conditions: read-out: Activity
[7] = test system: DU-145; assay: Growth inhibition of human DU-145 cells assessed as cell growth at 0.01 uM incubated for 48 hrs by sulforhodamine B assay relative to control; conditions: read-out: Activity
[8] = test system: ACHN; assay: Growth inhibition of human ACHN cells assessed as cell growth at 1 uM incubated for 48 hrs by sulforhodamine B assay relative to control; conditions: read-out: Activity
[9] = test system: SN12C; assay: Growth inhibition of human SN12C cells incubated for 48 hrs by sulforhodamine B assay
[10] = test system: SK-MEL-28; assay: Growth inhibition of human SK-MEL-28 cells incubated for 48 hrs by sulforhodamine B assay
[11] = test system: SK-MEL-5; assay: Growth inhibition of human SK-MEL-5 cells assessed as cell growth at 0.01 uM incubated for 48 hrs by sulforhodamine B assay relative to control; conditions: read-out: Activity
[12] = test system: MOLT-4; assay: Growth inhibition of human MOLT-4 cells incubated for 48 hrs by sulforhodamine B assay
[13] = test system: CAKI-1; assay: Growth inhibition of human CAKI-1 cells assessed as cell growth at 1 uM incubated for 48 hrs by sulforhodamine B assay relative to control; conditions: read-out: Activity
[14] = test system: SNB-19; assay: Growth inhibition of human SNB-19 cells incubated for 48 hrs by sulforhodamine B assay
[15] = test system: T47D; assay: Growth inhibition of human T47D cells assessed as cell growth at 0.1 uM incubated for 48 hrs by sulforhodamine B assay relative to control; conditions: read-out: Activity
[16] = test system: HCC 2998; assay: Growth inhibition of human HCC 2998 cells assessed as cell growth at 1 uM incubated for 48 hrs by sulforhodamine B assay relative to control; conditions: read-out: Activity
[17] = test system: UACC-62; assay: Growth inhibition of human UACC-62 cells assessed as cell growth at 0.01 uM incubated for 48 hrs by sulforhodamine B assay relative to control; conditions: read-out: Activity
[18] = test system: HL-60(TB); assay: Growth inhibition of human HL-60(TB) cells assessed as cell growth at 1 uM incubated for 48 hrs by sulforhodamine B assay relative to control; conditions: read-out: Activity
[19] = test system: SF-295; assay: Growth inhibition of human SF-295 cells assessed as cell growth at 100 uM incubated for 48 hrs by sulforhodamine B assay relative to control; conditions: read-out: Activity
[20] = test system: BT-549; assay: Growth inhibition of human BT-549 cells assessed as cell growth at 1 uM incubated for 48 hrs by sulforhodamine B assay relative to control; conditions: read-out: Activity
[21] = test system: T47D; assay: Growth inhibition of human T47D cells assessed as cell growth at 100 uM incubated for 48 hrs by sulforhodamine B assay relative to control; conditions: read-out: Activity
[22] = test system: SN12C; assay: Growth inhibition of human SN12C cells assessed as cell growth at 0.1 uM incubated for 48 hrs by sulforhodamine B assay relative to control; conditions: read-out: Activity
[23] = test system: KM12; assay: Growth inhibition of human KM12 cells incubated for 48 hrs by sulforhodamine B assay
[24] = test system: SF-539; assay: Growth inhibition of human SF-539 cells incubated for 48 hrs by sulforhodamine B assay
[25] = test system: NCI-H23; assay: Growth inhibition of human NCI-H23 cells assessed as cell growth at 100 uM incubated for 48 hrs by sulforhodamine B assay relative to control; conditions: read-out: Activity
[26] = test system: SR; assay: Growth inhibition of human SR cells assessed as cell growth at 1 uM incubated for 48 hrs by sulforhodamine B assay relative to control; conditions: read-out: Activity
[27] = test system: RXF 393; assay: Growth inhibition of human RXF 393 cells assessed as cell growth at 0.01 uM incubated for 48 hrs by sulforhodamine B assay relative to control; conditions: read-out: Activity
[28] = test system: SNB-75; assay: Growth inhibition of human SNB-75 cells incubated for 48 hrs by sulforhodamine B assay
[29] = test system: SR; assay: Growth inhibition of human SR cells assessed as cell growth at 0.01 uM incubated for 48 hrs by sulforhodamine B assay relative to control; conditions: read-out: Activity
[30] = test system: MDA-MB-435; assay: Growth inhibition of human MDA-MB-435 cells assessed as cell growth at 100 uM incubated for 48 hrs by sulforhodamine B assay relative to control; conditions: read-out: Activity
[31] = test system: UO-31; assay: Growth inhibition of human UO-31 cells assessed as cell growth at 0.1 uM incubated for 48 hrs by sulforhodamine B assay relative to control; conditions: read-out: Activity
[32] = test system: MDA-MB-435; assay: Growth inhibition of human MDA-MB-435 cells incubated for 48 hrs by sulforhodamine B assay
[33] = test system: A498; assay: Growth inhibition of human A498 cells assessed as cell growth at 0.01 uM incubated for 48 hrs by sulforhodamine B assay relative to control; conditions: read-out: Activity
[34] = read-out: LC50 (the source's name)
[35] = read-out: pLC50 (the source's name) (converted)

CC(=O)Nc1cc(CO[Si](C)(C)C(C)(C)C)cc(NC(=O)c2ccc(C(=O)Nc3cccc(NC(=O)CCCN(C)C)c3)cc2)c1
growth at 0.1 µM [1]: 93% | growth at 1 µM [2]: 97% | growth at 0.1 µM [3]: 93% | growth at 0.1 µM [4]: 99% | GI50 ([5]; read-out: GI50): > 75 µM | CC50 [5, 34]: > 75 µM | TGI ([5]; read-out: TGI): > 75 µM | GI50 ([5]; read-out: pGI50 (converted)): > 75.9 µM | CC50 [5, 35]: > 75.9 µM | TGI ([5]; read-out: pTGI): > 75.9 µM | growth at 0.01 µM [6]: 98% | growth at 0.01 µM [7]: 103% | growth at 1 µM [8]: 98% | GI50 ([9]; read-out: GI50): > 75 µM | CC50 [9, 34]: > 75 µM | TGI ([9]; read-out: TGI): > 75 µM | GI50 ([9]; read-out: pGI50 (converted)): > 75.9 µM | CC50 [9, 35]: > 75.9 µM | TGI ([9]; read-out: pTGI): > 75.9 µM | GI50 ([10]; read-out: GI50): > 75 µM | LC50 (50% lethal concentration) ([10]; read-out: LC50): > 75 µM | TGI ([10]; read-out: TGI): > 75 µM | GI50 ([10]; read-out: pGI50 (converted)): > 75.9 µM | LC50 (50% lethal concentration) ([10]; read-out: pLC50 (converted)): > 75.9 µM | TGI ([10]; read-out: pTGI): > 75.9 µM | growth at 0.01 µM [11]: 98% | GI50 ([12]; read-out: GI50): > 75 µM | CC50 [12, 34]: > 75 µM | TGI ([12]; read-out: TGI): > 75 µM | GI50 ([12]; read-out: pGI50 (converted)): > 75.9 µM | CC50 [12, 35]: > 75.9 µM | TGI ([12]; read-out: pTGI): > 75.9 µM | growth at 1 µM [13]: 73% | GI50 ([14]; read-out: GI50): > 75 µM | CC50 [14, 34]: > 75 µM | TGI ([14]; read-out: TGI): > 75 µM | GI50 ([14]; read-out: pGI50 (converted)): > 75.9 µM | CC50 [14, 35]: > 75.9 µM | TGI ([14]; read-out: pTGI): > 75.9 µM | growth at 0.1 µM [15]: 97% | growth at 1 µM [16]: 94% | growth at 0.01 µM [17]: 96% | growth at 1 µM [18]: 86% | growth at 100 µM [19]: 88% | growth at 1 µM [20]: 99% | growth at 100 µM [21]: 58% | growth at 0.1 µM [22]: 95% | GI50 ([23]; read-out: GI50): > 75 µM | CC50 [23, 34]: > 75 µM | TGI ([23]; read-out: TGI): > 75 µM | GI50 ([23]; read-out: pGI50 (converted)): > 75.9 µM | CC50 [23, 35]: > 75.9 µM | TGI ([23]; read-out: pTGI): > 75.9 µM | GI50 ([24]; read-out: GI50): > 75 µM | CC50 [24, 34]: > 75 µM | TGI ([24]; read-out: TGI): > 75 µM | GI50 ([24]; read-out: pGI50 (converted)): > 75.9 µM | CC50 [24, 35]: > 75.9 µM | TGI ([24]; read-out: pTGI): > 75.9 µM | growth at 100 µM [25]: 84% | growth at 1 µM [26]: 94% | growth at 0.01 µM [27]: 101% | GI50 ([28]; read-out: GI50): > 75 µM | LC50 ([28]; read-out: LC50): > 75 µM | TGI ([28]; read-out: TGI): > 75 µM | GI50 ([28]; read-out: pGI50 (converted)): > 75.9 µM | LC50 ([28]; read-out: pLC50 (converted)): > 75.9 µM | TGI ([28]; read-out: pTGI): > 75.9 µM | growth at 0.01 µM [29]: 106% | growth at 100 µM [30]: 88% | growth at 0.1 µM [31]: 94% | GI50 ([32]; read-out: GI50): > 75 µM | LC50 (50% lethal concentration) ([32]; read-out: LC50): > 75 µM | TGI ([32]; read-out: TGI): > 75 µM | GI50 ([32]; read-out: pGI50 (converted)): > 75.9 µM | LC50 (50% lethal concentration) ([32]; read-out: pLC50 (converted)): > 75.9 µM | TGI ([32]; read-out: pTGI): > 75.9 µM | growth at 0.01 µM [33]: 70%

— ChEMBL document CHEMBL4715697, “Synthesis and biological activity of benzamide DNA minor groove binders” (2016)
